Experimental findings from patent US11505543B2, “4-oxo-3,4-dihydroquinazoline compounds as inhibitors of human immunodeficiency virus replication” (VIIV HEALTHCARE UK (NO.5) LIMITED, priority 2018, dated 2022) are described below.

For orientation: pEC50 means the negative decadic logarithm of the EC50, by convention in mol/L. In general, CC50 refers to the concentration that lowers cell viability or growth by half. Low readings indicate greater toxicity to the cells, high ones lower toxicity to the cells.

For series [1], the system named is recombinant NL4-3 virus (nef section replaced with Renilla luciferase gene) in MT-2 cells. Put plainly: HIV cell culture assay (antiviral activity, luciferase readout). It counts as cell-based. Conditions: Renilla, NL43, MT-2 cells infected for 4-5 days with recombinant NL4-3 Renilla luciferase virus, serial dilutions of compound. The essentials:
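Test compound in serial dilution was present while MT-2 cells were infected for 4–5 days with recombinant NL4-3 virus made in 293T cells. Antiviral activity was quantified as Renilla luciferase activity, read with a live-cell substrate. EC50 came from the median-effect equation.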

A short description of series [2]: Compound cytotoxicity, XTT-based colorimetric assay. In kind it is cell-based. Conditions: human, uninfected MT2 cells, day 4, XTT. The procedure, abridged: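 Run under the antiviral-assay protocol but without virus. Viability was read on day 4 and CC50 values were derived from the readout.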

pEC50: −log10 of the molar value.

Take `O=C(Cn1nc(C(F)F)c2c1C(F)(F)[C@H]1C[C@@H]21)N[C@@H](Cc1cc(F)cc(F)c1)c1nc2cc(-c3ncccn3)ccc2c(=O)n1-c1ccc(S(=O)(=O)N2CCOCC2)cc1` [Example 27, 2-((3bR,4aS)-3-(difluoromethyl)-5,5-difluoro-3b,4,4a,5-tetrahydro-1H-cyclopropa[3,4]cyclopenta[1,2-c]pyrazol-1-yl)-N-((S)-2-(3,5-difluorophenyl)-1-(3-(4-(morpholinosulfonyl)phenyl)-4-oxo-7-(pyrimidin-2-yl)-3,4-dihydroquinazolin-2-yl)ethyl)acetamide]: in series [1], the pEC50 is 8.24. Also, in series [2], the cytotoxic concentration (CC50) at 4 day is above 1000 nM.

`CS(=O)(=O)Nc1nn(CC(F)F)c2c(-n3c([C@H](Cc4cc(F)cc(F)c4)NC(=O)Cn4nc(C(F)F)c5c4C(F)(F)[C@@H]4C[C@H]54)nc4cc(-c5ccccc5F)ccc4c3=O)ccc(Cl)c12` [Example 183, N-((S)-1-(3-(4-chloro-1-(2,2-difluoroethyl)-3-(methylsulfonamido)-1H-indazol-7-yl)-7-(2-fluorophenyl)-4-oxo-3,4-dihydroquinazolin-2-yl)-2-(3,5-difluorophenyl)ethyl)-2-((3bS,4aR)-3-(difluoromethyl)-5,5-difluoro-3b,4,4a,5-tetrahydro-1H-cyclopropa[3,4]cyclopenta[1,2-c]pyrazol-1-yl)acetamide]: the pEC50 in series [1] was 9.41. This molecule also gave a CC50 at 4 day in series [2] above 500 nM.

Turning to `O=C(Cn1ccc(C2CC2)n1)N[C@@H](Cc1cc(F)cc(F)c1)c1nc2cc(-c3ccccc3Oc3ccccc3)ccc2c(=O)n1-c1ccc(S(=O)(=O)N2CCOCC2)cc1` [Example 42, (S)-2-(3-cyclopropyl-1H-pyrazol-1-yl)-N-(2-(3,5-difluorophenyl)-1-(3-(4-(morpholinosulfonyl)phenyl)-4-oxo-7-(2-phenoxyphenyl)-3,4-dihydroquinazolin-2-yl)ethyl)acetamide], in series [1], the pEC50 was 7.27. In addition, in series [2], the CC50 at 4 day is above 1000 nM.

Regarding `CS(=O)(=O)Nc1nn(CC(F)(F)F)c2c(-n3c([C@H](Cc4cc(F)cc(F)c4)NC(=O)Cn4nc(C(F)F)c5c4C(F)(F)[C@@H]4C[C@H]54)nc4cc(-c5ccccc5S(C)(=O)=O)ccc4c3=O)ccc(Cl)c12` [Example 167, N-((S)-1-(3-(4-chloro-3-(methylsulfonamido)-1-(2,2,2-trifluoroethyl)-1H-indazol-7-yl)-7-(2-(methylsulfonyl)phenyl)-4-oxo-3,4-dihydroquinazolin-2-yl)-2-(3,5-difluorophenyl)ethyl)-2-((3bS,4aR)-3-(difluoromethyl)-5,5-difluoro-3b,4,4a,5-tetrahydro-1H-cyclopropa[3,4]cyclopenta[1,2-c]pyrazol-1-yl)acetamide], the pEC50 in series [1] was 10.10. The same molecule displayed a CC50 at 4 day in series [2] above 500 nM.

On to `Cn1nc(NS(C)(=O)=O)c2c(Cl)ccc(-n3c([C@H](Cc4cc(F)cc(F)c4)NC(=O)Cn4nc(C(F)F)c5c4C(F)(F)[C@@H]4C[C@H]54)nc4cc(-c5ccc(F)c(C(=O)O)c5)ccc4c3=O)c21` (atropisomer, axis not shown; (aR)) [Example 38, 5-(3-(4-chloro-1-methyl-3-(methylsulfonamido)-1H-indazol-7-yl)-2-((S)-1-(2-((3bS,4aR)-3-(difluoromethyl)-5,5-difluoro-3b,4,4a,5-tetrahydro-1H-cyclopropa[3,4]cyclopenta[1,2-c]pyrazol-1-yl)acetamido)-2-(3,5-difluorophenyl)ethyl)-4-oxo-3,4-dihydroquinazolin-7-yl)-2-fluorobenzoic acid], for which the negative logarithm of the EC50 (pEC50) in series [1] is 8.00. The same molecule had a half-maximal cytotoxic concentration (CC50) at 4 day in series [2] above 1000 nM.

As to `COc1ccc(-c2ccc3c(=O)n(-c4ccc(S(=O)(=O)N5CCOCC5)cc4)c([C@H](Cc4cc(F)cc(F)c4)NC(=O)Cn4ccc(C5CC5)n4)nc3c2)cn1` [Example 32, (S)-2-(3-cyclopropyl-1H-pyrazol-1-yl)-N-(2-(3,5-difluorophenyl)-1-(7-(6-methoxypyridin-3-yl)-3-(4-(morpholinosulfonyl)phenyl)-4-oxo-3,4-dihydroquinazolin-2-yl)ethyl)acetamide], in series [1], the negative-log EC50 (pEC50) was 8.24. The molecule further had a 50% cytotoxic concentration (CC50) at 4 day in series [2] above 1000 nM.
